Toxic doses and inconclusive results are not listed. The calls were made as follows: active = survival T/C of 150% or more; inactive = T/C below 125% in these data. Square brackets hold non-standard residues; d marks the D form. Peptide text beside a SMILES is read from it. Nva = CCC[CH](N)C(=O)O
System: P388 leukemia ip, CD2F1 mice, survival T/C
Assay: NCI In Vivo Anticancer Drug Screen. Data for tumor model P388 Leukemia (intraperitoneal) in CD2F1 (CDF1) mice
Conditions: endpoint: median survival time, higher = longer survival
Summary of the method: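 Mice carrying the transplanted tumor received test compound or vehicle. Survival was recorded in each group, and the value is the treated-group measurement divided by that of the vehicle-treated control group.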

[1] = dose: 100.0 mg/kg/injection, schedule: Q04DX003 (ip), vehicle: Klucel (hydroxypropylcellulose) (HPC)
[2] = dose: 200.0 mg/kg/injection, schedule: Q04DX003 (ip), vehicle: Klucel (hydroxypropylcellulose) (HPC)
[3] = dose: 400.0 mg/kg/injection, schedule: Q04DX003 (ip), vehicle: Klucel (hydroxypropylcellulose) (HPC)
[4] = dose: 6.25 mg/kg/injection, schedule: Q01DX005 (ip), vehicle: saline with Tween-80
[5] = dose: 12.5 mg/kg/injection, schedule: Q01DX005 (ip), vehicle: saline with Tween-80
[6] = dose: 25.0 mg/kg/injection, schedule: Q01DX005 (ip), vehicle: saline with Tween-80
[7] = dose: 100.0 mg/kg/injection, schedule: Q01DX005 (ip), vehicle: saline with Tween-80
[8] = dose: 60.0 mg/kg/injection, schedule: Q01DX005 (ip), vehicle: saline with Tween-80
[9] = dose: 120.0 mg/kg/injection, schedule: Q01DX005 (ip), vehicle: saline with Tween-80
[10] = dose: 240.0 mg/kg/injection, schedule: Q01DX005 (ip), vehicle: saline with Tween-80
[11] = dose: 50.0 mg/kg/injection, schedule: Q01DX005 (ip), vehicle: Klucel (hydroxypropylcellulose) (HPC)
[12] = dose: 100.0 mg/kg/injection, schedule: Q01DX005 (ip), vehicle: Klucel (hydroxypropylcellulose) (HPC)
[13] = dose: 50.0 mg/kg/injection, schedule: Q01DX005 (ip), vehicle: saline with Tween-80
[14] = dose: 200.0 mg/kg/injection, schedule: Q01DX005 (ip), vehicle: saline with Tween-80
[15] = dose: 50.0 mg/kg/injection, schedule: Q01DX009 (ip), vehicle: saline
[16] = dose: 100.0 mg/kg/injection, schedule: Q01DX009 (ip), vehicle: saline
[17] = dose: 50.0 mg/kg/injection, schedule: Q01DX009 (ip), vehicle: saline with Tween-80
[18] = dose: 100.0 mg/kg/injection, schedule: Q01DX009 (ip), vehicle: saline with Tween-80
[19] = dose: 200.0 mg/kg/injection, schedule: Q01DX009 (ip), vehicle: saline

Measured: T/C

O=c1[nH]c2c(c(O)c1-c1ccccc1)CCCN2
inactive: [1] 102 % of control | [2] 100 % of control | [3] 110 % of control

O=C(OCCN1CCN(CCOC(=O)C(Cl)(c2ccccc2)c2ccccc2)CC1)C(Cl)(c1ccccc1)c1ccccc1
inactive: [4] 95 % of control | [5] 93 % of control | [6] 95 % of control | [7] 90 % of control

O=c1c2ccccc2c2nccn2c2ccccc12
inactive: [8] 90 % of control | [9] 90 % of control | [10] 96 % of control

C/C(CCCC(C)(C)C(=O)O)=N\NC(N)=O
inactive: [8] 100 % of control | [9] 94 % of control | [10] 97 % of control

O=[N+]([O-])c1ccccc1N/N=C\c1c(Cl)[nH]c2ccccc12
inactive: [11] 90 % of control | [12] 95 % of control | dose: 100.0 mg/kg/injection, schedule: Q04DX002 (ip), vehicle: Klucel (hydroxypropylcellulose) (HPC) 90 % of control | dose: 200.0 mg/kg/injection, schedule: Q04DX002 (ip), vehicle: Klucel (hydroxypropylcellulose) (HPC) 91 % of control | dose: 400.0 mg/kg/injection, schedule: Q04DX002 (ip), vehicle: Klucel (hydroxypropylcellulose) (HPC) 95 % of control

COc1ccc(CC#N)c(OC)c1
inactive: dose: 12.5 mg/kg/injection, schedule: Q01DX009 (ip), vehicle: other 102 % of control | dose: 25.0 mg/kg/injection, schedule: Q01DX009 (ip), vehicle: other 102 % of control

O=C1NC(=O)[C@@]2(CC[C@@H](O)C2)c2ccncc21
inactive: dose: 1.5 mg/kg/injection, schedule: Q01DX009 (ip), vehicle: DMSO 89 % of control | dose: 3.0 mg/kg/injection, schedule: Q01DX009 (ip), vehicle: DMSO 93 % of control | dose: 6.0 mg/kg/injection, schedule: Q01DX009 (ip), vehicle: DMSO 101 % of control | dose: 12.0 mg/kg/injection, schedule: Q01DX009 (ip), vehicle: DMSO 95 % of control | dose: 25.0 mg/kg/injection, schedule: Q01DX005 (ip), vehicle: DMSO 91 % of control | dose: 50.0 mg/kg/injection, schedule: Q01DX005 (ip), vehicle: DMSO 96 % of control | dose: 100.0 mg/kg/injection, schedule: Q01DX005 (ip), vehicle: DMSO 93 % of control | dose: 200.0 mg/kg/injection, schedule: Q01DX005 (ip), vehicle: DMSO 92 % of control

c1ccc(-c2nnn(-n3nnc(-c4ccccc4)n3)n2)cc1
inactive: dose: 100.0 mg/kg/injection, schedule: Q04DX003 (ip), vehicle: saline with Tween-80 97 % of control | dose: 200.0 mg/kg/injection, schedule: Q04DX003 (ip), vehicle: saline with Tween-80 100 % of control | dose: 400.0 mg/kg/injection, schedule: Q04DX003 (ip), vehicle: saline with Tween-80 97 % of control

O=C(O)c1ccc(/C=C2\COc3ccccc3C2=O)cc1
inactive: [8] 103 % of control | [9] 112 % of control | [10] 112 % of control

CC(C)CC(NC(=O)C(N)CC(=O)O)C(=O)O (stereo not drawn) (H-Asp-Leu-OH; configuration not given here)
inactive: [11] 100 % of control | [12] 98 % of control | dose: 200.0 mg/kg/injection, schedule: Q01DX005 (ip), vehicle: Klucel (hydroxypropylcellulose) (HPC) 99 % of control

CC1(C)C(=O)C=C[C@]2(C)[C@H]3CC[C@]4(C)C(=CC[C@H]4c4ccoc4)[C@]3(C)[C@H](O)C[C@@H]12
inactive: dose: 7.81 mg/kg/injection, schedule: Q01DX005 (ip), vehicle: Klucel (hydroxypropylcellulose) (HPC) 98 % of control | dose: 15.63 mg/kg/injection, schedule: Q01DX005 (ip), vehicle: Klucel (hydroxypropylcellulose) (HPC) 98 % of control | dose: 31.25 mg/kg/injection, schedule: Q01DX005 (ip), vehicle: Klucel (hydroxypropylcellulose) (HPC) 95 % of control | dose: 62.5 mg/kg/injection, schedule: Q01DX005 (ip), vehicle: Klucel (hydroxypropylcellulose) (HPC) 95 % of control | dose: 125.0 mg/kg/injection, schedule: Q01DX005 (ip), vehicle: Klucel (hydroxypropylcellulose) (HPC) 93 % of control

CCOC(=O)c1cn(C)c(=O)c(Br)c1C#N
inactive: [13] 92 % of control | [7] 96 % of control | [14] 93 % of control

Brc1ccc(/C=C/c2ccncc2)cc1
inactive: [13] 104 % of control | [7] 99 % of control | [14] 93 % of control

C=C(Cl)C(=NC(C)(C)C)Nc1ccccc1
inactive: [11] 102 % of control | [12] 92 % of control

CN(C)CCC(=O)c1ccc(Cl)cc1Cl
inactive: [15] 110 % of control | [16] 100 % of control

CN(C)c1nc(-c2ccccc2)cc(=O)[nH]1
inactive: dose: 15.0 mg/kg/injection, schedule: Q01DX009 (ip), vehicle: saline with Tween-80 102 % of control | dose: 30.0 mg/kg/injection, schedule: Q01DX009 (ip), vehicle: saline with Tween-80 108 % of control | dose: 50.0 mg/kg/injection, schedule: Q04DX003 (ip), vehicle: Klucel (hydroxypropylcellulose) (HPC) 98 % of control | dose: 60.0 mg/kg/injection, schedule: Q01DX009 (ip), vehicle: saline with Tween-80 100 % of control | [1] 94 % of control | [2] 94 % of control | [3] 92 % of control

CO/C=C1\SC(=S)N(c2ccc(NC(C)=O)cc2)C1=O
inactive: [17] 93 % of control | [18] 92 % of control | dose: 200.0 mg/kg/injection, schedule: Q01DX009 (ip), vehicle: saline with Tween-80 96 % of control

CCOC(=O)C(C)(C)CN(CCCN(C)C)CC(C)(C)C(=O)OCC
inactive: [17] 105 % of control | [18] 115 % of control

O=NNc1ccc(Cl)nc1
inactive: dose: 3.12 mg/kg/injection, schedule: Q01DX009 (ip), vehicle: saline 109 % of control | dose: 6.25 mg/kg/injection, schedule: Q01DX009 (ip), vehicle: saline 110 % of control | dose: 12.5 mg/kg/injection, schedule: Q01DX009 (ip), vehicle: saline 106 % of control | dose: 25.0 mg/kg/injection, schedule: Q01DX009 (ip), vehicle: saline 106 % of control | [15] 107 % of control

N#CC(CC[N+](=O)[O-])(c1ccccc1)C(c1ccccc1)[N+](=O)[O-] (configuration not stated)
inactive: dose: 12.5 mg/kg/injection, schedule: Q01DX001 (ip), vehicle: saline with Tween-80 87 % of control | dose: 25.0 mg/kg/injection, schedule: Q01DX001 (ip), vehicle: saline with Tween-80 96 % of control

O=[N+]([O-])c1ccc2c(ccc3sc4ccccc4[n+]32)c1
inactive: [4] 95 % of control | [5] 108 % of control | [6] 111 % of control | [13] 112 % of control

CCCC1(CC)CNC(=O)NC1=O (configuration not stated)
inactive: [13] 100 % of control | [7] 93 % of control | [14] 99 % of control

CC(=O)N(c1nc2ccccc2s1)N1C(=O)c2ccccc2C1=O
inactive: dose: 60.0 mg/kg/injection, schedule: Q01DX005 (ip), vehicle: Klucel (hydroxypropylcellulose) (HPC) 98 % of control | dose: 120.0 mg/kg/injection, schedule: Q01DX005 (ip), vehicle: Klucel (hydroxypropylcellulose) (HPC) 94 % of control | dose: 240.0 mg/kg/injection, schedule: Q01DX005 (ip), vehicle: Klucel (hydroxypropylcellulose) (HPC) 90 % of control

CCCC(N)C(=O)NC(C(=O)O)C(C)C (configuration not stated) (H-[Nva]-Val-OH; configuration not given here)
inactive: [15] 100 % of control | [16] 103 % of control | [19] 100 % of control

O=C(O)c1cc(N2C(=O)c3ccc4c5ccc6c7c(ccc(c8ccc(c3c48)C2=O)c75)C(=O)N(c2ccc(O)c(C(=O)O)c2)C6=O)ccc1O
inactive: [15] 98 % of control | [16] 91 % of control | [19] 90 % of control
